According to ChEMBL document CHEMBL1909046, “DrugMatrix in vitro pharmacology data”:
Where a SMILES comes first, the peptide text is derived from it. Bridges are numbered along the chain shown (N, C = ends). [ ]: non-standard residue; d: D form. The star is where a group is joined. Ileψ(thiazoline)Cys = CC[C@H](C)[C@H](N)C1=N[C@H](C(=O)*)CS1; dOrn = NCCC[C@@H](N)C(=O)O

Tests used:
[1] = DRUGMATRIX: Sodium/nucleoside co-transporter radioligand binding (ligand: nitrobenzylthioinosine); assay type: cell membranes, Cavia porcellus, Dunkin-Hartley, Cerebral cortex, Membrane; conditions: Not Active = under 50% inhibition at 10 µM
[2] = target: Beta-2 adrenergic receptor (Homo sapiens, UniProt P07550); experiment: DRUGMATRIX: Adrenergic beta2 radioligand binding (ligand: [3H] CGP-12177); assay type: cell membranes, Membrane; conditions: cho; Not Active = under 50% inhibition at 10 µM
[3] = target: Sodium-dependent noradrenaline transporter (Homo sapiens, UniProt P23975); experiment: DRUGMATRIX: Norepinephrine Transporter radioligand binding (ligand: [125I] RTI-55); assay type: cell membranes, MDCK, Membrane; conditions: mdck; Not Active = under 50% inhibition at 10 µM
[4] = DRUGMATRIX: Interleukin IL-1 radioligand binding (ligand: [125I] interleukin 1beta); assay type: cell membranes, Membrane; conditions: nih3t3; Not Active = under 50% inhibition at 10 µM
Melanocortin receptor 4 = Melanocortin receptor 4 (Homo sapiens, UniProt P32245); assay type: cell membranes, Membrane; conditions: hek293; further: in other assays of this panel Not Active means under 50% inhibition at 10 µM
Melanocortin receptor 5 = Melanocortin receptor 5 (Homo sapiens, UniProt P33032); assay type: cell membranes, HEK293, Membrane; conditions: hek293; further: in other assays of this panel Not Active means under 50% inhibition at 10 µM
[5] = target: T1, Muscarinic acetylcholine receptor M4 (Homo sapiens, UniProt P08173); assay type: cell membranes, CHO-K1, Membrane; conditions: cho-k1; further: in other assays of this panel Not Active means under 50% inhibition at 10 µM
T1 sequence (P08173 whole entry): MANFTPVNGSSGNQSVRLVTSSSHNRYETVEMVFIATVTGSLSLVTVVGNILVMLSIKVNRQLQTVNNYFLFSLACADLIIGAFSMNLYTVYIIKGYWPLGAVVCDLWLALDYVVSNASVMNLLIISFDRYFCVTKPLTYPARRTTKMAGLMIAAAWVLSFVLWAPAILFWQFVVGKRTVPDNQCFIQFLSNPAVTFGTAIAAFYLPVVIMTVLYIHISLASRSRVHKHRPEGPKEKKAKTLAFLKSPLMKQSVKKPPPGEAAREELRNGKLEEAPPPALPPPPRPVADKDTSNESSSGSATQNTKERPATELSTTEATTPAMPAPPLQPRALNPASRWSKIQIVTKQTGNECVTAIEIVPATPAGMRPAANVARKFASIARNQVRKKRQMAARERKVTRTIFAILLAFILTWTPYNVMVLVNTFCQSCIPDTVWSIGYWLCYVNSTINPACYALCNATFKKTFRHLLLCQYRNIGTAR

[6] = target: T2, Muscarinic acetylcholine receptor M5 (Homo sapiens, UniProt P08912); assay type: cell membranes, CHO-K1, Membrane; conditions: cho-k1; further: in other assays of this panel Not Active means under 50% inhibition at 10 µM
T2 sequence (P08912 whole entry): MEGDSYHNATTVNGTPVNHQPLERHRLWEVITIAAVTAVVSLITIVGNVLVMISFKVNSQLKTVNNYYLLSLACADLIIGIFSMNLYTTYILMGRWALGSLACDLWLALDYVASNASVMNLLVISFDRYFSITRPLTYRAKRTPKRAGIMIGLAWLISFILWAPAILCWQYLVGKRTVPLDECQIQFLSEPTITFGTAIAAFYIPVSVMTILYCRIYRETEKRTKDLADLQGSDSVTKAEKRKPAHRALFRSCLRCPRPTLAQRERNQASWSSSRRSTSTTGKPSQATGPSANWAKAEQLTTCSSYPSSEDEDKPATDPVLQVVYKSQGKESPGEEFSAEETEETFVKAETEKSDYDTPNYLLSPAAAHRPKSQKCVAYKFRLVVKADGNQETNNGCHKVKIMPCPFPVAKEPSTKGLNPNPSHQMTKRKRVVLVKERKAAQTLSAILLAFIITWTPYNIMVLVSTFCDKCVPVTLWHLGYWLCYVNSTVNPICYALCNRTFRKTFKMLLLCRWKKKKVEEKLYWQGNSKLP

[7] = target: T3, Neuropeptide Y receptor type 2 (Homo sapiens, UniProt P49146); assay type: cell membranes, Membrane; conditions: kan-ts; further: in other assays of this panel Not Active means under 50% inhibition at 10 µM
T3 sequence (P49146 whole entry): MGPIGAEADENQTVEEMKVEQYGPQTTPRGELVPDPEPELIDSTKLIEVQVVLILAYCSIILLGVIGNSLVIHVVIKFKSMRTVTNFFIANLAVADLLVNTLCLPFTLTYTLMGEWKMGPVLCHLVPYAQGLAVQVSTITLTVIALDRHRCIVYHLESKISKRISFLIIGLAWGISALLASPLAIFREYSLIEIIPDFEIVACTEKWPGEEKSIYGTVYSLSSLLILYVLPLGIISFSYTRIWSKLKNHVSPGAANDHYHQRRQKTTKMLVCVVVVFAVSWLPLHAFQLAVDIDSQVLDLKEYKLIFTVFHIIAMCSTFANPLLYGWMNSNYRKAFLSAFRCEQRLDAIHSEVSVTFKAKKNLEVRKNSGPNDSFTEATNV

[8] = target: Platelet-activating factor receptor (Homo sapiens, UniProt P25105); experiment: biochemical; assay type: tissue-based; conditions: platelet; further: in other assays of this panel Not Active means under 50% inhibition at 10 µM
Interstitial collagenase = target: T4, Interstitial collagenase (Homo sapiens, UniProt P03956); assay type: tissue-based, Rheumatoid synovial fibroblasts
T4 sequence (P03956 whole entry): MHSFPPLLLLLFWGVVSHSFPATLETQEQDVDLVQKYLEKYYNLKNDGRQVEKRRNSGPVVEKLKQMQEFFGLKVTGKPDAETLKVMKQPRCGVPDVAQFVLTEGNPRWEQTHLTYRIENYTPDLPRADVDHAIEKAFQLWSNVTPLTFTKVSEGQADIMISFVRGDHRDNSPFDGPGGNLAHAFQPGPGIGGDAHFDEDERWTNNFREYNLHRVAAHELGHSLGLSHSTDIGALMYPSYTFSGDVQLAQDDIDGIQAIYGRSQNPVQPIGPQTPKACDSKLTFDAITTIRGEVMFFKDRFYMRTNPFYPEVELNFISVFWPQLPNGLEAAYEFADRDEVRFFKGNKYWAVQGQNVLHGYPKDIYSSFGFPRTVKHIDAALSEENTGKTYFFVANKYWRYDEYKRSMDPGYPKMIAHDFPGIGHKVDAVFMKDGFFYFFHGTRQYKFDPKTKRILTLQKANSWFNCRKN

[9] = target: 5-hydroxytryptamine receptor 1B (Rattus norvegicus, UniProt P28564); assay type: cell membranes, Wistar, Cerebral cortex, Membrane; further: in other assays of this panel Not Active means under 50% inhibition at 10 µM
Cytochrome P450 2C19 = Cytochrome P450 2C19 (Homo sapiens, UniProt P33261); conditions: bti-tn-5b1-4; further: in other assays of this panel Not Active means under 50% inhibition at 10 µM
Cytochrome P450 2C19, sequence (P33261 whole entry): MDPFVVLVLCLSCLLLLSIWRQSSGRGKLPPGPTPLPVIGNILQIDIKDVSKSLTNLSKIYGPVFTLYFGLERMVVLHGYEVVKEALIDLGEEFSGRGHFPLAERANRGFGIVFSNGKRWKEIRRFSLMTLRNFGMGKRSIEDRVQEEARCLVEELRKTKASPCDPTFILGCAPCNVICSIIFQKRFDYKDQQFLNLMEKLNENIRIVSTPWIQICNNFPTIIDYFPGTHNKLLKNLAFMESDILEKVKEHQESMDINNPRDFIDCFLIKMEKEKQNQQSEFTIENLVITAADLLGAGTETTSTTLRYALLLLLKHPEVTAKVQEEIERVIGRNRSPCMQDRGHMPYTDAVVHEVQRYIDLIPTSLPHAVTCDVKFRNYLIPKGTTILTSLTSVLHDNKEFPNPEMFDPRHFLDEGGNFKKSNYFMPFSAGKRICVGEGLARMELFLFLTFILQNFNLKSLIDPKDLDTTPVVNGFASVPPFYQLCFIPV

5-hydroxytryptamine receptor 1B, sequence (P28564 whole entry): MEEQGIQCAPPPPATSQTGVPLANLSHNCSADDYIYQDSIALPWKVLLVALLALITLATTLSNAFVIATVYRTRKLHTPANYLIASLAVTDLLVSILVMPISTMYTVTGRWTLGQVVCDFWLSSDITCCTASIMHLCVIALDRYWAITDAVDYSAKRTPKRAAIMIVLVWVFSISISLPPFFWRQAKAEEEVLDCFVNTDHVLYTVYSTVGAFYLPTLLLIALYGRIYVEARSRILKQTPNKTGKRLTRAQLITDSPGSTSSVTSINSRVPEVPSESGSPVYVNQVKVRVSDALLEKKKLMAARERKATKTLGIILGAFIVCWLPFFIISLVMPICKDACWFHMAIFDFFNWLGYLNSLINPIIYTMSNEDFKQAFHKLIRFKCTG
Platelet-activating factor receptor, sequence (P25105 whole entry): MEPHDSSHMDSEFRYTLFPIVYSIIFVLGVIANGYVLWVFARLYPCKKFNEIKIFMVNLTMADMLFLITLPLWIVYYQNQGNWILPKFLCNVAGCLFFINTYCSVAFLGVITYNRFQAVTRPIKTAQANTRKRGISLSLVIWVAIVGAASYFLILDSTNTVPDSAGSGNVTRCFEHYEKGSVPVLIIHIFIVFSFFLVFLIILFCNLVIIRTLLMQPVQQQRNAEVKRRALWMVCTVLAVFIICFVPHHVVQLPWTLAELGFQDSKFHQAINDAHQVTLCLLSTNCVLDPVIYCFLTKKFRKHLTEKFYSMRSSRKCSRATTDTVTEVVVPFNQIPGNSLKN
Sodium-dependent noradrenaline transporter, sequence (P23975 whole entry): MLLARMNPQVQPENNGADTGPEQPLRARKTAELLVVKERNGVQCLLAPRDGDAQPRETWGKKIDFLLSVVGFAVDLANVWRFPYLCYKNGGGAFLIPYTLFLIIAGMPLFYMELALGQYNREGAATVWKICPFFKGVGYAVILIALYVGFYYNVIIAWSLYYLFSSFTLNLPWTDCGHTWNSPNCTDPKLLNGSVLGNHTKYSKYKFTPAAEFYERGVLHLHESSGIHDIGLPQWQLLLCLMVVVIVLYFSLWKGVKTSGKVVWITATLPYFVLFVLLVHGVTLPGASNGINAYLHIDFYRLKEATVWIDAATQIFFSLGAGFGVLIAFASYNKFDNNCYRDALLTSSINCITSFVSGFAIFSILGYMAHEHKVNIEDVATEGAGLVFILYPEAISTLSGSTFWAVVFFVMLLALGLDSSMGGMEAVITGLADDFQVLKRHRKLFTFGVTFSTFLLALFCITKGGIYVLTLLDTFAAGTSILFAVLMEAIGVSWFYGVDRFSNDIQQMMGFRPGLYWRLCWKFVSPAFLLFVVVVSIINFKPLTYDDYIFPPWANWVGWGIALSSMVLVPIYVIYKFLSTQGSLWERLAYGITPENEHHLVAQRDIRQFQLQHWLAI
Melanocortin receptor 4, sequence (P32245 whole entry): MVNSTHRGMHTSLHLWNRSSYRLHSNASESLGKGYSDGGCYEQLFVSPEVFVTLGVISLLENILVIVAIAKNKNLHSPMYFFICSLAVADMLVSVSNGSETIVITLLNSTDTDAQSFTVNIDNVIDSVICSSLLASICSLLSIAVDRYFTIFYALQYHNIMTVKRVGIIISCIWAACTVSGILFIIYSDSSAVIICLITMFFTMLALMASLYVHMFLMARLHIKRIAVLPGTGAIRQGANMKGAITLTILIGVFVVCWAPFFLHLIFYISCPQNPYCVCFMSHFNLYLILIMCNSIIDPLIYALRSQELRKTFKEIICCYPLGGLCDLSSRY
Melanocortin receptor 5, sequence (P33032 whole entry): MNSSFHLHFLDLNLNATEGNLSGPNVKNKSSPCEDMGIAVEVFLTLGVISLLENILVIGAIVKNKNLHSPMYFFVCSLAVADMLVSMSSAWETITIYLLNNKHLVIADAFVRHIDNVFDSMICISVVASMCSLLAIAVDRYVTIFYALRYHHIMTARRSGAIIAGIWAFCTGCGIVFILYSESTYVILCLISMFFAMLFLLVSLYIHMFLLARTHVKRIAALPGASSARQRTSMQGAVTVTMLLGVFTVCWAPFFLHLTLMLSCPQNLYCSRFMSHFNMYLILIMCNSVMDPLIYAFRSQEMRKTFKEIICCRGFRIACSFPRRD
Beta-2 adrenergic receptor, sequence (P07550 whole entry): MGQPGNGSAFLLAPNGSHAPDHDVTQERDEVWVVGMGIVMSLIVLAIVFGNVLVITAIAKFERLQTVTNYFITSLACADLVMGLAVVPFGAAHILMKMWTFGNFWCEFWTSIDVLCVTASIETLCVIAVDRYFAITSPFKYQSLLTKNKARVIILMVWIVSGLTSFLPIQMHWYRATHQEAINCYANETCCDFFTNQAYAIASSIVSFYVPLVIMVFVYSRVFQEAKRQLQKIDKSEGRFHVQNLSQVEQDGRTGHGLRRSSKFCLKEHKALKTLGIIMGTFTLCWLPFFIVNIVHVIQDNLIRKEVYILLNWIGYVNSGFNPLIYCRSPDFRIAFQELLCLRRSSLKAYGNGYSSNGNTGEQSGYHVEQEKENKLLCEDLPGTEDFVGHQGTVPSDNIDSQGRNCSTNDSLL

Cn1cnc([N+](=O)[O-])c1Sc1ncnc2nc[nH]c12 [AZATHIOPRINE]
Not Active: IC50 [1] | Ki [1] | IC50 [2] | IC50 [3] | IC50 [4] | Ki [4] | IC50 (Melanocortin receptor 4) | IC50 (Melanocortin receptor 5) | IC50 [5] | IC50 [6] | IC50 [7] | IC50 [8] | IC50 (Interstitial collagenase) | IC50 [9]

CC[C@H](C)[C@H](N)C1=N[C@H](C(=O)N[C@@H](CC(C)C)C(=O)N[C@H](CCC(=O)O)C(=O)N[C@H](C(=O)N[C@H]2CCCCNC(=O)[C@H](CC(N)=O)NC(=O)[C@@H](CC(=O)O)NC(=O)[C@H](Cc3cnc[nH]3)NC(=O)[C@@H](Cc3ccccc3)NC(=O)[C@H]([C@@H](C)CC)NC(=O)[C@@H](CCCN)NC2=O)[C@@H](C)CC)CS1 [BACITRACIN] ({Ileψ(thiazoline)Cys}-L[dE]IK[dOrn]I[dF]H[dD]N; lactam 4-C)
Not Active: IC50 [1] | Ki [1] | IC50 [2] | IC50 [3] | IC50 [4] | Ki [4] | IC50 (Melanocortin receptor 4) | IC50 (Melanocortin receptor 5) | IC50 [5] | IC50 [6] | IC50 [7] | IC50 [8] | IC50 (Interstitial collagenase) | IC50 (Cytochrome P450 2C19) | Ki (Cytochrome P450 2C19)

CCCCOC(=O)c1ccc(N)cc1 [BUTAMBEN]
Not Active: IC50 [1] | Ki [1] | IC50 [2] | IC50 [3] | IC50 [4] | Ki [4] | IC50 (Melanocortin receptor 4) | IC50 (Melanocortin receptor 5) | IC50 [5] | IC50 [6] | IC50 [7] | IC50 [8] | IC50 (Interstitial collagenase) | IC50 [9]

CC(=O)O[C@]1(C(C)=O)CC[C@H]2[C@@H]3C=C(Cl)C4=CC(=O)CC[C@]4(C)[C@H]3CC[C@@]21C [CHLORMADINONE ACETATE]
Not Active: IC50 [1] | Ki [1] | IC50 [2] | IC50 [3] | IC50 [4] | Ki [4] | IC50 (Melanocortin receptor 4) | IC50 (Melanocortin receptor 5) | IC50 [5] | IC50 [6] | IC50 [7] | IC50 [8] | IC50 (Interstitial collagenase) | IC50 [9]

O=C(O)c1cn(C2CC2)c2cc(N3CCNCC3)c(F)cc2c1=O [CIPROFLOXACIN]
Not Active: IC50 [1] | Ki [1] | IC50 [2] | IC50 [3] | IC50 [4] | Ki [4] | IC50 (Melanocortin receptor 4) | IC50 (Melanocortin receptor 5) | IC50 [5] | IC50 [6] | IC50 [7] | IC50 [8] | IC50 (Interstitial collagenase) | IC50 [9]

Nc1nc(=O)[nH]cc1F [FLUCYTOSINE]
Not Active: IC50 [1] | Ki [1] | IC50 [2] | IC50 [3] | IC50 [4] | Ki [4] | IC50 (Melanocortin receptor 4) | IC50 (Melanocortin receptor 5) | IC50 [5] | IC50 [6] | IC50 [7] | IC50 [8] | IC50 (Interstitial collagenase) | IC50 [9]

O=C1OC2(c3ccc(O)cc3Oc3cc(O)ccc32)c2ccccc21 [FLUORESCEIN]
Not Active: IC50 [1] | Ki [1] | IC50 [2] | IC50 [3] | IC50 [4] | Ki [4] | IC50 (Melanocortin receptor 4) | IC50 (Melanocortin receptor 5) | IC50 [5] | IC50 [6] | IC50 [7] | IC50 [8] | IC50 (Interstitial collagenase) | IC50 [9]

O=C1OCCN1/N=C/c1ccc([N+](=O)[O-])o1 [FURAZOLIDONE]
Not Active: IC50 [1] | Ki [1] | IC50 [2] | IC50 [3] | IC50 [4] | Ki [4] | IC50 (Melanocortin receptor 4) | IC50 (Melanocortin receptor 5) | IC50 [5] | IC50 [6] | IC50 [7] | IC50 [8] | IC50 (Interstitial collagenase) | IC50 [9]

NCC(=O)O [GLYCINE]
Not Active: IC50 [1] | Ki [1] | IC50 [2] | IC50 [3] | IC50 [4] | Ki [4] | IC50 (Melanocortin receptor 4) | IC50 (Melanocortin receptor 5) | IC50 [5] | IC50 [6] | IC50 [7] | IC50 [8] | IC50 (Interstitial collagenase) | IC50 [9]

O=P1(NCCCl)OCCCN1CCCl (stereo unspecified) [IFOSFAMIDE]
Not Active: IC50 [1] | Ki [1] | IC50 [2] | IC50 [3] | IC50 [4] | Ki [4] | IC50 (Melanocortin receptor 4) | IC50 (Melanocortin receptor 5) | IC50 [5] | IC50 [6] | IC50 [7] | IC50 [8] | IC50 (Interstitial collagenase) | IC50 [9]
